Where a name gives a salt, the structure may show the parent alone.
Target: T1, activated ROCK II (Rattus norvegicus, UniProt Q62868)
T1 construct: purchased Upstate Biotechnology 14-338
Experiment: Test for Evaluation of Inhibiting Activity to Rho Kinase
Format: biochemical
Conditions: S6 Kinase Substrate Peptide, [γ-32P]ATP, 30° C. for 15 minutes, Ki=IC50/(1+S/Km)
Protocol: In order to find the utility of the present invention compound, a Rho kinase inhibiting activity of the present invention compound was evaluated. The details thereof will be illustrated under the item of “Pharmacological Test (Test for Evaluation of Rho Kinase Inhibiting Activity)” in the Examples which will be mentioned later. The evaluation of the Rho kinase inhibiting activity of the present invention compound was carried out in accordance with the methods mentioned in J. Biol. Chem., 274, 32418 (1999) by Kaibuchi, et al. and mentioned in the instruction manual for use attached to the commercially available activated ROCK II [Upstate Biotechnology, Catalog No. 14-338 (5 units/50 μl)].
A. Test for Evaluation of Inhibiting Activity to Rho Kinase
In order to test the usefulness of the compounds of the present invention as a Rho kinase inhibitor, inhibiting activities of the compounds of the present invention to Rho kinase were evaluated and investigated in accordance with the methods of Kaibuchi, et al. mentioned in J. Biol. Chem., 274, 32418, 1999 and also with the methods mentioned in the instruction manual for use attached to commercially available activated ROCK II [Upstate Biotechnology, Catalog No. 14-338, (5 unite/50 μl)]. With regard to the test compounds, the compounds 5-1 to 5-73 (except the compounds 5-2, 5-9, 5-18, 5-37 and 5-38) were used.
A buffer was prepared so as to make tris(hydroxymethyl)aminomethane (Tris) (pH 7.5), 50 mM, ethyleneglycol bis(β-aminoethyl ether)-N,N,N′,N′-tetraacetic acid (EGTA), 2 mM, ethylenediaminetetraacetic acid (EDTA), 1 mM, magnesium chloride (MgCl2) 5 mM, β-glycerol phosphate, 5 mM, and dithiothreitol (DTT), 2 mM, by mixing them.
A mixed liquid of a 10 mM ATP solution with a commercially available [γ-^32P]ATP solution [NEN, Code No. NEG-002A] was diluted with the buffer to prepare a 300 μM ATP [γ-^32P]ATP solution.
A Commercially Available Activated ROCK II [Upstate Biotechnology, Catalog No. 14-338, (5 Units/50 μl)] was diluted to a concentration of 1/100 with the buffer to prepare an activated ROCK II solution.
A S6 Kinase Substrate Peptide [Upstate Biotechnology, Catalog No. 12-124,] (2 mg) was dissolved in distilled water to prepare a 1 mM substrate solution.
A test compound was dissolved in 10% aqueous dimethyl sulfoxide solution.
1) The test compound solution is placed in a microtube.
2) The 300 μM ATP [γ-^32P]ATP solution is added to the microtube followed by cooling to 4° C.
3) After that, a permanently activated ROCK II solution, 1 mM substrate solution and buffer are added to each microtube in that order, and the whole is mixed and cooled again at 4° C.
4) The microtube is placed in an incubator (30° C.) and the mixture is subjected to reaction for 15 minutes.
5) After cooling to 4° C., a 250 mM phosphoric acid solution (5 μl) is added to each microtube to stop the reaction.
6) The reaction solution (30 μl) is taken out from each microtube and spotted on a filter paper (Whatman P81) so that the reaction product (phosphorylated substrate) is adsorbed to the filter paper.
7) The filter paper is transferred to a beaker in which a 75 mM phosphoric acid solution is placed and shaken for 5 minutes so that unreacted [γ-^32P]AfP is washed out. The washing operation as such is carried out four times.
8) After that, the filter paper is dipped in ethanol to dehydrate and energy amount (radioactivity) of the reaction product adsorbed to the filter paper is measured with a liquid scintillation counter.
The IC50 value was calculated by an XL-fit (IDBS).
The Ki value is calculated by the following formula. S is an ATP concentration contained in the reaction solution while Km is a Michaelis-Menten constant. Ki=IC50/(1+S/Km)

T1 sequence (Q62868 11-550 limits assumed): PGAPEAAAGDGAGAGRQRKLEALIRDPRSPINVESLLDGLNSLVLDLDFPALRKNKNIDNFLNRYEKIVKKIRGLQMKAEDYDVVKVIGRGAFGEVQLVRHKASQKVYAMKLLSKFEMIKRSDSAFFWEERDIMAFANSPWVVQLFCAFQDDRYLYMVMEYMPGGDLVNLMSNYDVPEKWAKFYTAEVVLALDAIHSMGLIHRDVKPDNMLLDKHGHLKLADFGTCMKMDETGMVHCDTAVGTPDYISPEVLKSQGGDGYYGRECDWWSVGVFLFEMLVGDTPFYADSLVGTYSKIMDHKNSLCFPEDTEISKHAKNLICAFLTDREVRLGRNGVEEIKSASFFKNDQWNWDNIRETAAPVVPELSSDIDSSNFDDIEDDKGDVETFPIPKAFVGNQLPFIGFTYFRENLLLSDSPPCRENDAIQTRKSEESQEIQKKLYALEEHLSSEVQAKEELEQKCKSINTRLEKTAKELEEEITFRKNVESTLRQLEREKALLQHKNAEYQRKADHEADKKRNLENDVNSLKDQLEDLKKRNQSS

Ki [nM] | Compound
27 | COc1c(-c2ccc(C(C)(C)N)cn2)ccc2[nH]ncc12 [Compound 5-45, 5-[5-(1-Amino-1-methylethyl)pyridin-2-yl]-4-methoxy-1H-indazole trihydrochloride]
45 | CCOc1c(-c2ccc(C(C)(C)N)cn2)ccc2[nH]ncc12 [Compound 5-47, 5-[5-(1-Amino-1-methylethyl)pyridin-2-yl]-4-ethoxy-1H-indazole trihydrochloride]
17 | CCOc1c(-c2ccc(C(C)(C)N)cc2)ccc2[nH]ncc12 [Compound 5-49, 5-[4-(1-Amino-1-methylethyl)phenyl]-4-ethoxy-1H-indazole dihydrochloride]
84 | CC(C)Oc1c(-c2ccc(C(C)(C)N)cn2)ccc2[nH]ncc12 [Compound 5-50, 5-[5-(1-Amino-1-methylethyl)pyridin-2-yl]-4-isopropoxy-1H-indazole trihydrochloride]
38 | CCC(N)(CC)c1ccc(-c2ccc3[nH]ncc3c2OC)nc1 [Compound 5-51, 5-[5-(1-Amino-1-ethylpropyl)pyridin-2-yl]-4-methoxy-1H-indazole trihydrochloride]
14 | CCCOc1c(-c2ccc(C(C)(C)N)cc2)ccc2[nH]ncc12 [Compound 5-52, 5-[4-(1-Amino-1-methylethyl)phenyl]-4-n-propoxy-1H-indazole dihydrochloride]
39 | CCCOc1c(-c2ccc(C(C)(C)N)cn2)ccc2[nH]ncc12 [Compound 5-58, 5-[5-(1-Amino-1-methylethyl)pyridin-2-yl]-4-n-propoxy-1H-indazole trihydrochloride]
6.9 | CC(C)(N)c1ccc(-c2ccc3[nH]ncc3c2OC(F)F)nc1 [Compound 5-59, 5-[5-(1-Amino-1-methylethyl)pyridin-2-yl]-4-difluoromethoxy-1H-indazole trihydrochloride]
35 | CCOc1c(-c2ccc(C(N)(CC)CC)cn2)ccc2[nH]ncc12 [Compound 5-60, 5-[5-(1-Amino-1-ethylpropyl)pyridin-2-yl]-4-ethoxy-1H-indazole trihydrochloride]
56 | CC(C)(N)c1ccc(-c2ccc3[nH]ncc3c2-c2cn[nH]c2)nc1 [Compound 5-65, 5-[5-(1-Amino-1-methylethyl)pyridin-2-yl]-4-(pyrazol-4-yl)-1H-indazole tetrahydrochloride]
55 | CC(C)(N)c1ccc(-c2ccc3[nH]ncc3c2O)nc1 [Compound 5-69, 5-[5-(1-Amino-1-methylethyl)pyridin-2-yl]-4-hydroxy-1H-indazole trihydrochloride]
28 | CC(C)(N)c1ccc(-c2ccc3[nH]ncc3c2OC2CC2)nc1 [Compound 5-70, 5-[5-(1-Amino-1-methylethyl)pyridin-2-yl]-4-cyclo-propyloxy-1H-indazole trihydrochloride]

The next lines start with the compound.

Compound | Ki [nM]
CC(C)(N)c1ccc(-c2ccc3[nH]ncc3c2-n2cccc2)cc1 [Compound 5-39, 5-[4-(1-Amino-1-methylethyl)phenyl]-4-(pyrrol-1-yl)-1H-indazole dihydrochloride] | 12
CC(C)Oc1c(-c2ccc(C(C)(C)N)cc2)ccc2[nH]ncc12 [Compound 5-40, 5-[4-(1-Amino-1-methylethyl)phenyl]-4-isopropoxy-1H-indazole dihydrochloride] | 33
CC(C)(N)c1ccc(-c2ccc3[nH]ncc3c2N2CCCCC2)cc1 [Compound 5-41, 5-[4-(1-Amino-1-methylethyl)phenyl]-4-(piperidin-1-yl)-1H-indazole trihydrochloride] | 14
CC(C)(N)c1ccc(-c2ccc3[nH]ncc3c2N2CCCC2)cc1 [Compound 5-42, 5-[4-(1-Amino-1-methylethyl)phenyl]-4-(pyrrolidin-1-yl)-1H-indazole trihydrochloride] | 14
CC(C)(N)c1ccc(-c2ccc3[nH]ncc3c2N2CCOCC2)cc1 [Compound 5-43, 5-[4-(1-Amino-1-methylethyl)phenyl]-4-(morpholin-4-yl)-1H-indazole trihydrochloride] | 211
COc1c(-c2ccc(C(C)(C)N)cc2)ccc2[nH]ncc12 [Compound 5-44, 5-[4-(1-Amino-1-methylethyl)phenyl]-4-methoxy-1H-indazole dihydrochloride] | 13
COc1c(-c2ccc(C3(N)CCCC3)cn2)ccc2[nH]ncc12 [Compound 5-46, 5-[5-(1-Aminocyclopentyl)pyridin-2-yl]-4-methoxy-1H-indazole trihydrochloride] | 27
CC(C)(N)c1ccc(-c2ccc3[nH]ncc3c2O)cc1 [Compound 5-48, 5-[4-(1-Amino-1-methylethyl)phenyl]-4-hydroxy-1H-indazole dihydrochloride] | 29
CC(C)(N)c1ccc(-c2ccc3[nH]ncc3c2OC(F)F)cc1 [Compound 5-53, 5-[4-(1-Amino-1-methylethyl)phenyl]-4-difluoro-methoxy-1H-indazole dihydrochloride] | 3.6
CC(C)(N)c1ccc(-c2ccc3[nH]ncc3c2OCC(F)(F)F)cc1 [Compound 5-54, 5-[4-(1-Amino-1-methylethyl)phenyl]-4-(2,2,2-tri-fluoroethoxy)-1H-indazole dihydrochloride] | 31
CCCCOc1c(-c2ccc(C(C)(C)N)cc2)ccc2[nH]ncc12 [Compound 5-55, 5-[4-(1-Amino-1-methylethyl)phenyl]-4-n-butoxy-1H-indazole dihydrochloride] | 13
CC(C)(N)c1ccc(-c2ccc3[nH]ncc3c2OCCF)cc1 [Compound 5-56, 5-[4-(1-Amino-1-methylethyl)phenyl]-4-(2-fluoro-ethoxy)-1H-indazole dihydrochloride] | 26
C=CCOc1c(-c2ccc(C(C)(C)N)cc2)ccc2[nH]ncc12 [Compound 5-57, 4-Allyloxy-5-[4-(1-amino-1-methylethyl)phenyl]-1H-indazole dihydrochloride] | 23
CC(C)(N)c1ccc(-c2ccc3[nH]ncc3c2-c2ccncc2)cc1 [Compound 5-61, 5-[4-(1-Amino-1-methylethyl)phenyl]-4-(pyridin-4-yl)-1H-indazole trihydrochloride] | 45
CC(C)(N)c1ccc(-c2ccc3[nH]ncc3c2-c2cccnc2)cc1 [Compound 5-62, 5-[4-(1-Amino-1-methylethyl)phenyl]-4-(pyridin-3-yl)-1H-indazole trihydrochloride] | 126
CC(C)(N)c1ccc(-c2ccc3[nH]ncc3c2-c2ccccn2)cc1 [Compound 5-63, 5-[4-(1-Amino-1-methylethyl)phenyl]-4-(pyridin-2-yl)-1H-indazole trihydrochloride] | 241
CC(C)(N)c1ccc(-c2ccc3[nH]ncc3c2-c2cn[nH]c2)cc1 [Compound 5-64, 5-[4-(1-Amino-1-methylethyl)phenyl]-4-(pyrazol-4-yl)-1H-indazole trihydrochloride] | 4.4
CC(C)(N)c1ccc(-c2ccc3[nH]ncc3c2-c2cnco2)cc1 [Compound 5-66, 5-[4-(1-Amino-1-methylethyl)phenyl]-4-(oxazol-5-yl)-1H-indazole dihydrochloride] | 2.6
CC(C)(N)c1ccc(-c2ccc3[nH]ncc3c2-c2cc[nH]n2)cc1 [Compound 5-67, 5-[4-(1-Amino-1-methylethyl)phenyl]-4-(pyrazol-3-yl)-1H-indazole trihydrochloride] | 11
CC(C)(N)c1ccc(-c2ccc3[nH]ncc3c2-c2ccno2)cc1 [Compound 5-68, 5-[4-(1-Amino-1-methylethyl)phenyl]-4-(isoxazol-5-yl)-1H-indazole dihydrochloride] | 6.4

— patent publication US8232308B2, “Methods for treating a disease in which Rho kinase is involved” (UBE Industries, Ltd., priority 2003, dated 2012)
